# Reference: US20250243186A1, “PIPERIDINYL INDOLE DERIVATIVES, PREPARATION METHODS AND MEDICINAL USES THEREOF” (HANSOH BIO LLC, priority 2021, published 2025)
# Biological target: Recombinant human Factor B catalytic domain (Homo sapiens (Human), UniProt P00751)
# Experiment: Factor B binding assay by TR-FRET
# Conditions: Factor B TR-FRET IC50 (nM), 10 nM his-tagged Factor B catalytic domain, 100 nM tracer, 1 h
# Experimental: • 1. […] 5× Kinase Buffer A (Thermo Fisher, CAT #PV3189) • 3. LANCE Eu-W1024 Anti-6×His Antibody (PerkinElmer, CAT #AD0401) • 4.
# DMSO (Thermo Fisher Scientific) • 6. Compounds—10 mM stock in DMSO • 7. Victor Nivo multimode plate reader (PerkinElmer) • 8.
# Factor B binding affinity of each compound tested was determined using a time-resolved fluorescence resonance energy transfer (TR-FRET) technology. 10 nM recombinant his-tagged Factor B catalytic domain, varying concentrations of inhibitors, 4 nM LANCE Eu-W1024 Anti-6×His Antibody and 100 nM TR-FRET_tool2 tracer was incubated in 1× Kinase Buffer A for 1 h. Measurement was performed in a reaction volume of 15 μL by adding 5 μL of the test compound, 5 μL of Factor B/antibody mixture and 5 μL of tracer into white opaque 384-well assay plates.
# Sequence of Recombinant human Factor B catalytic domain (P00751 470-764): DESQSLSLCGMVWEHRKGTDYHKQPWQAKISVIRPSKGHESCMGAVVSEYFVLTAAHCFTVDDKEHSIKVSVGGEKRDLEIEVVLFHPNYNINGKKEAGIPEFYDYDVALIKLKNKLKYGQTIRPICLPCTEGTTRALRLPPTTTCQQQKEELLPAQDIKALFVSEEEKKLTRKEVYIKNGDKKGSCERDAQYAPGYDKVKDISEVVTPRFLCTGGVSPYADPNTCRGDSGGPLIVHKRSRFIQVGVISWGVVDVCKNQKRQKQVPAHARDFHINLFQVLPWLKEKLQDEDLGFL
row,Compound,IC50 [nM]
1,"Cc1cc(C)c2[nH]ccc2c1CN1CCC(CCCO)=CC1c1ccc(C(=O)O)cc1 (single isomer, unassigned) [2 (Isomer 2), 4-(1-((5,7-dimethyl-1H-indol-4-yl)methyl)-4-(3-hydroxypropyl)-1,2,5,6-tetrahydropyridin-2-yl)benzoic acid]",360
2,"Cc1cc(C)c2[nH]ccc2c1CN1CCC2(CCCO2)CC1c1ccc(C(=O)O)cc1 (single isomer, unassigned) [2 (Isomer 3), 4-(8-((5,7-dimethyl-1H-indol-4-yl)methyl)-1-oxa-8-azaspiro[4.5]decan-7-yl)benzoic acid]",507
3,"Cc1cc(C)c2[nH]ccc2c1CN1CCC2(CCCO2)CC1c1ccc(C(=O)O)cc1 (single isomer, unassigned) [2 (Isomer 6), 4-(8-((5,7-dimethyl-1H-indol-4-yl)methyl)-1-oxa-8-azaspiro[4.5]decan-7-yl)benzoic acid]",60
4,"Cc1cc(C)c2[nH]ccc2c1CN1CCC(C(F)F)CC1c1ccc(C(=O)O)cc1 (single isomer, unassigned) [6 (Isomer 2), 4-(4-(difluoromethyl)-1-((5,7-dimethyl-1H-indol-4-yl)methyl)piperidin-2-yl)benzoic acid]",142
5,"Cc1cc(C)c2[nH]ccc2c1CN1CCC(CF)CC1c1ccc(C(=O)O)cc1 (single isomer, unassigned) [7 (Isomer 1), 4-(1-((5,7-dimethyl-1H-indol-4-yl)methyl)-4-(fluoromethyl)piperidin-2-yl)benzoic acid]",313
6,"Cc1cc(C)c2[nH]ccc2c1CN1CCC(CF)CC1c1ccc(C(=O)O)cc1 (single isomer, unassigned) [7 (Isomer 2), 4-(1-((5,7-dimethyl-1H-indol-4-yl)methyl)-4-(fluoromethyl)piperidin-2-yl)benzoic acid]",157
7,"COc1cc(C)c2[nH]ccc2c1CN1CCC2(CC1c1ccc(C(=O)O)cc1)CC2(F)F (single isomer, unassigned) [8 (Isomer 2), 4-(1,1-difluoro-6-((5-methoxy-7-methyl-1H-indol-4-yl)methyl)-6-azaspiro[2.5]octan-5-yl)benzoic acid]",245
8,"Cc1cc(C)c2[nH]ccc2c1CN1C[C@@H]2CCCC2C1c1ccc(C(=O)O)cc1 (single isomer, unassigned) [9 (Isomer 2), 4-(2-((5,7-dimethyl-1H-indol-4-yl)methyl)octahydrocyclopenta[c]pyrrol-1-yl)benzoic acid]",40.6
9,"COc1cc(C)c2[nH]ccc2c1CN1CC2CCCC2C1c1ccc(C(=O)O)cc1 (single isomer, unassigned) [13 (Isomer 1), 4-(2-((5-methoxy-7-methyl-1H-indol-4-yl)methyl)octahydrocyclopenta[c]pyrrol-1-yl)benzoic acid]",17.4
10,"COc1cc(C)c2[nH]ccc2c1CN1CCC2(CCC1c1ccc(C(=O)O)cc1)CC2(F)F (single isomer, unassigned) [24 (Isomer 1), 4-(1,1-difluoro-6-((5-methoxy-7-methyl-1H-indol-4-yl)methyl)-6-azaspiro[2.6]nonan-7-yl)benzoic acid]",1410
11,"COc1cc(C)c2[nH]ccc2c1CN1CCC2(CCC1c1ccc(C(=O)O)cc1)CC2(F)F (single isomer, unassigned) [24 (Isomer 2), 4-(1,1-difluoro-6-((5-methoxy-7-methyl-1H-indol-4-yl)methyl)-6-azaspiro[2.6]nonan-7-yl)benzoic acid]",729
12,"COc1cc(C)c2[nH]ccc2c1CN1CCCCC1c1ccc(C(=O)O)cc1C(F)F (single isomer, unassigned) [26 (Isomer 1), 3-(difluoromethyl)-4-(1-((5-methoxy-7-methyl-1H-indol-4-yl)methyl)piperidin-2-yl)benzoic acid]",31.5
13,"COc1cc(C)c2[nH]ccc2c1CN1CC2(CCOC2)CC1c1ccc(C(=O)O)cc1 (single isomer, unassigned) [28 (Isomer 2), 4-(7-((5-methoxy-7-methyl-1H-indol-4-yl)methyl)-2-oxa-7-azaspiro[4.4]nonan-8-yl)benzoic acid]",81.5
14,"COc1cc(C)c2[nH]ccc2c1CN1CC2CC3(CC3)CC2C1c1ccc(C(=O)O)cc1 (single isomer, unassigned) [29 (Isomer 2), 4-(2-((5-methoxy-7-methyl-1H-indol-4-yl)methyl)hexahydro-1H-spiro[cyclopenta[c]pyrrole-5,1′-cyclopropan]-1-yl)benzoic acid]",43.7
15,"Cc1cc(C2CC2)c(CN2CC3CCCC3C2c2ccc(C(=O)O)cc2)c2cc[nH]c12 (single isomer, unassigned) [32 (Isomer 1), 4-(2-((5-cyclopropyl-7-methyl-1H-indol-4-yl)methyl)octahydrocyclopenta[c]pyrrol-1-yl)benzoic acid]",26.3
16,"COc1cc(C)c2[nH]ccc2c1CN1C[C@@H]2CC(C)(C)C[C@@H]2C1c1ccc(C(=O)O)cc1 (single isomer, unassigned) [34 (Isomer 1)]",7.7
17,"COc1cc(C)c2[nH]ccc2c1CN1C[C@@H]2CC(C)(C)C[C@@H]2C1c1ccc(C(=O)O)cc1 (single isomer, unassigned) [34 (Isomer 2)]",180
18,"COc1cc(C)c2[nH]ccc2c1CN1CCC2(CCOC2)CC1c1ccc(C(=O)O)cc1 (single isomer, unassigned) [36 (Isomer 2), 4-(8-((5-methoxy-7-methyl-1H-indol-4-yl)methyl)-2-oxa-8-azaspiro[4.5]decan-7-yl)benzoic acid]",16.6
19,"COc1cc(C)c2[nH]ccc2c1CN1CCC2(CCOC2)CC1c1ccc(C(=O)O)cc1 (single isomer, unassigned) [36 (Isomer 3), 4-(8-((5-methoxy-7-methyl-1H-indol-4-yl)methyl)-2-oxa-8-azaspiro[4.5]decan-7-yl)benzoic acid]",125
20,"COc1cc(C)c2[nH]ccc2c1C(C)N1CC2CCCC2C1c1ccc(C(=O)O)cc1 (single isomer, unassigned) [37 (Isomer 1), 4-(2-(1-(5-methoxy-7-methyl-1H-indol-4-yl)ethyl)octahydrocyclopenta[c]pyrrol-1-yl)benzoic acid]",322
21,"COc1cc(C)c2[nH]ccc2c1C(C)N1CC2CCCC2C1c1ccc(C(=O)O)cc1 (single isomer, unassigned) [37 (Isomer 3), 4-(2-(1-(5-methoxy-7-methyl-1H-indol-4-yl)ethyl)octahydrocyclopenta[c]pyrrol-1-yl)benzoic acid]",222
22,"COc1cc(C)c2[nH]ccc2c1C(C)N1CC2CCCC2C1c1ccc(C(=O)O)cc1 (single isomer, unassigned) [37 (Isomer 4), 4-(2-(1-(5-methoxy-7-methyl-1H-indol-4-yl)ethyl)octahydrocyclopenta[c]pyrrol-1-yl)benzoic acid]",359
23,"COc1cc(C)c2[nH]ccc2c1CN1CCC2(CCO2)CC1c1ccc(C(=O)O)cc1 (single isomer, unassigned) [38 (Isomer 4), 4-(7-((5-methoxy-7-methyl-1H-indol-4-yl)methyl)-1-oxa-7-azaspiro[3.5]nonan-6-yl)benzoic acid]",4.8
24,"COc1cc(C)c2[nH]ccc2c1CN1CC2CC(C(F)F)CC2C1c1ccc(C(=O)O)cc1 (single isomer, unassigned) [39 (Isomer 1), 4-(5-(difluoromethyl)-2-((5-methoxy-7-methyl-1H-indol-4-yl)methyl)octahydrocyclopenta[c]pyrrol-1-yl)benzoic acid]",2.6
25,"COc1cc(C)c2[nH]ccc2c1CN1CC2CC(C(F)F)CC2C1c1ccc(C(=O)O)cc1 (single isomer, unassigned) [39 (Isomer 2), 4-(5-(difluoromethyl)-2-((5-methoxy-7-methyl-1H-indol-4-yl)methyl)octahydrocyclopenta[c]pyrrol-1-yl)benzoic acid]",4.1
26,"COc1cc(C)c2[nH]ccc2c1CN1CC2CC(C(F)F)CC2C1c1ccc(C(=O)O)cc1 (single isomer, unassigned) [39 (Isomer 3), 4-(5-(difluoromethyl)-2-((5-methoxy-7-methyl-1H-indol-4-yl)methyl)octahydrocyclopenta[c]pyrrol-1-yl)benzoic acid]",7.3
27,"COc1cc(C)c2[nH]ccc2c1CN1CCC2(CC1c1ccc(C(=O)O)cc1)CC(C)(F)C2 (single isomer, unassigned) [42 (Isomer 1), 4-(2-fluoro-7-((5-methoxy-7-methyl-1H-indol-4-yl)methyl)-2-methyl-7-azaspiro[3.5]nonan-6-yl)benzoic acid]",4
28,"Cc1cc(C)c2[nH]ccc2c1CN1CC2(CCCCC2)C1c1ccc(C(=O)O)cc1 (stereo not shown) [Example 16, 4-(2-((5,7-dimethyl-1H-indol-4-yl)methyl)-2-azaspiro[3.5]nonan-1-yl)benzoic acid]",305

# Same assay, conditions: read-out: Factor B TR-FRET IC50; 10 nM his-tagged Factor B catalytic domain, 100 nM tracer, 1 h
row,Compound,IC50 [nM]
1,"Cc1cc(C)c2[nH]ccc2c1CN1CCC2(C[C@H]1c1ccc(C(=O)O)cc1)CC(F)(F)C2 (single isomer, unassigned) [76 (Isomer 1)]",< 2
2,"Cc1cc(Br)c(CN2CCC3(C[C@H]2c2ccc(C(=O)O)cc2)CC(F)(F)C3)c2cc[nH]c12 (single isomer, unassigned) [78 (Isomer 1)]",7.4
3,"Cc1cc(C)c2[nH]ccc2c1CN1C[C@@H]2CCCCC2C1c1ccc(C(=O)O)cc1 (stereo in doubt) [Example 10, 4-(2-((5,7-dimethyl-1H-indol-4-yl)methyl)octahydro-1H-isoindol-1-yl)benzoic acid]",265
4,"Cc1cc(C)c2[nH]ccc2c1CN1CC2CC2C1c1ccc(C(=O)O)cc1 (stereo not shown) [Example 1, 4-(3-((5,7-dimethyl-1H-indol-4-yl)methyl)-3-azabicyclo[3.1.0]hexan-2-yl)benzoic acid]",923
5,"Cc1cc(C)c2[nH]ccc2c1CN1CCC(CCO)=CC1c1ccc(C(=O)O)cc1 (stereo not shown) [Example 4, 4-(1-((5,7-dimethyl-1H-indol-4-yl)methyl)-4-(2-hydroxyethyl)-1,2,5,6-tetrahydropyridin-2-yl)benzoic acid]",173
6,"COc1cc(C)c2[nH]ccc2c1CN1CC(CF)CC1c1ccc(C(=O)O)cc1 (stereo not shown) [Example 21, 4-(4-(fluoromethyl)-1-((5-methoxy-7-methyl-1H-indol-4-yl)methyl)pyrrolidin-2-yl)benzoic acid]",844
